# “And” between values parts separate entries of the source, which are not always exact repeats. Equal values may be shown once. Read-outs that look alike come from different tables or passages of the source.
# Columns and labels:
# SARS-CoV-2 [1] = format: in vivo; settings: 4 close contacts; inhaled taurolidine 0.5% 3 times or twice a day for 7 days
# SARS-CoV-2 [2] = format: in vivo
# [3] = biological target: blood coagulation factor X (Homo sapiens, UniProt P00742); settings: from Reinmüller, Zentralblatt Chirurgie 124 (1999); cited from earlier work
# blood coagulation factor X, sequence (P00742 41-488): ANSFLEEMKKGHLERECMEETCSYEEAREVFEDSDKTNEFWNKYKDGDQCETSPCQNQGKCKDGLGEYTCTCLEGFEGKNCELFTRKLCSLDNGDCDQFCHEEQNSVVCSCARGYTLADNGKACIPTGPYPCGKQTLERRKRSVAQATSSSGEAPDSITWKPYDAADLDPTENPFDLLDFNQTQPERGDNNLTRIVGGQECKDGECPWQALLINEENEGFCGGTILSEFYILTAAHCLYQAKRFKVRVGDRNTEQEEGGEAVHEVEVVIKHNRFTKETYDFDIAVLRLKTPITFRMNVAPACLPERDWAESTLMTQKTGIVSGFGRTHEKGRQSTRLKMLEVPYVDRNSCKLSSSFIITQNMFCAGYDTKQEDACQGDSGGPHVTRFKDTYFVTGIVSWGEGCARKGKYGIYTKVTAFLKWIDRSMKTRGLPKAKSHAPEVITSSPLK
structure (smiles),measurement,setting,value
O=S1(=O)CCN(CN2CCS(=O)(=O)NC2)CN1 [taurolidine],POCT for SARS-CoV-2 under prophylaxis,SARS-CoV-2 [1],remained negative
same,disease symptoms under prophylaxis,SARS-CoV-2 [1],remained symptom-free
same,time interval from the start of treatment to the easing of the symptoms,"SARS-CoV-2 [2]; SARS-CoV-2 positive (POCT) participant, inhaled taurolidine 0.5% three times a day",≤ 48 h
same,time interval from the start of treatment to the easing of the symptoms,SARS-CoV-2 [2]; in vivo,96 h and 72 h
same,activity of the blood coagulation factor X,[3],inhibits the activity

# From patent publication US20230122776A1, “ANTIVIRAL AGENT” (priority 2020, published 2023)
